IC50 data for 4 molecules are collected here from patent US6984642B1, “Substituted phenylcyclohexane carboxylic acid amides and their use as adenosine uptake inhibitors” (Bayer Aktiengesellschaft, priority 1999, dated 2006).

pIC50: −log10 of the molar value.

A word on the pIC50: it is the IC50 on a negative log10 scale, so that one unit is a factor of ten.

The test relates to adenosine-uptake system. Put plainly: Inhibition of adenosine uptake in rabbit erythrocytes. The following applies: Oryctolagus cuniculus, 0.25 h; rabbit erythrocyte preparation; concentration at which 50% of the adenosine originally employed is still present 15 min after addition; 30° C. Format: cell-based. As for the experimental part: 2. Inhibition of Adenosine Uptake in Rabbit Erythrocytes by the Compounds According to the Invention.
The capability of substances to influence the adenosine-uptake system is investigated by determining the inhibitory effect of the substances on functional adenosine uptake. For the functional adenosine-uptake test, an erythrocyte preparation from rabbit blood is used. The blood is drawn intravenously using citrate (3 ml Monovette 9NC from Sarstedt) as anticoagulant. The blood is centrifuged at 3000 g for 5 min and the erythrocytes are suspended in 10 mM MOPS/0.9% NaCl solution pH 7.4. The suspension is diluted to one hundredth of the original blood volume. In each case 990 μl of the suspension are admixed with 10 μl of a suitable concentration of the substance to be investigated, and the mixture is incubated at 30° C. for 5 min. 5 μl of a 4 mM adenosine solution are then added, and the mixture is incubated at 30° C. for another 15 min. The samples are then centrifuged at 3000 g for 5 min and in each case […] of the supernatant are admixed with 28 μl of 70% strength HClO4, allowed to stand in an ice bath for 30 min and centrifuged at 16,000 g for 3 min, and 350 μl of the sample are neutralized using 30 μl of 5N NaOH. 50 μl of the sample are applied to a column (Waters Symmetry C18 […] 3.9×150 mm). A Spherisorb ODS II 5 μm 4.6×10 mm column is used as precolumn. The mobile phase used is a gradient of 50 mM KH2PO^4/5 mM tributylamine pH 7 (mobile phase A) and a mixture of mobile phase A/methanol 1/1 (mobile phase B). The gradient is from 10-40% B, at a flow rate of 0.5 ml/min. The adenosine which is present is quantified by its absorption at 260 nm, as are the hyoxanthine and inosine formed.
Consider `NC(=O)[C@@H](NC(=O)[C@@H]1CCCC[C@H]1c1ccc(Cn2c(CN3CCOCC3)nc3cccnc32)cc1)c1ccccc1` [Example 3, (S)-N-{{(1R, 2R)-{4-{2-[2-(Morpholin-4-yl-methyl)-1H-pyrido[2,3-d]-imidazol-1-yl]methyl}-phenyl}-cyclohex-1-yl}carbonyl}-phenylglycinamide], for which the pIC50 is 7.82.

On to `CC(C)N1CCN(c2nc3ccccc3n2Cc2ccc([C@@H]3CCCC[C@H]3C(=O)N[C@H](C(N)=O)c3ccccc3)cc2)CC1` [Example 8], for which the pIC50 was 7.70. The pIC50 values of the last two molecules are within 0.2 log units of each other.

On to `NC(=O)[C@@H](NC(=O)[C@@H]1CCCC[C@H]1c1ccc(Cn2c(N3CCNCC3)nc3ccccc32)cc1)c1ccccc1` [Example 10], for which the pIC50 is 7.60.

The molecule `NC(=O)[C@@H](NC(=O)[C@@H]1CCCC[C@H]1c1ccc(Cn2c(COCCO)nc3cccnc32)cc1)c1ccccc1` [Example 16] gave a pIC50 of 8.00.
